Assay results: patent US20260250721A1, “Biological Anisole Production” (Wageningen Universiteit, priority 2023, published 2026)

Legend:
P. putida KT2440 = assay: Toxicity analysis: growth of P. putida KT2440 at different phenol and anisole concentrations
Protocol: (§1) P. putida and E. coli cultures were incubated at 30° C. and 37° C. respectively. For cloning purposes, both strains were propagated in Lysogeny Broth (LB) medium containing 10 g/L NaCl, 10 g/L tryptone, and 5 g/L yeast extract. For the preparation of solid media, 1.5% (w/v) agar was added. […] All growth experiments were performed using M9 minimal medium (per Liter; 3.88 g K2HPO4, 1.63 g NaH2PO4, 2.0 g (NH4)2SO4, pH 7.0. The M9 media was supplemented with a trace elements solution (10 mg/L ethylenediaminetetraacetic acid (EDTA), 0.1 g/L MgCl2 6 H2O, 2 mg/L ZnSO4·7H2O, 1 mg/L CaCl2)·2H2O, 5 mg/L FeSO4·7 H2O, 0.2 mg/L Na2MoO4·2H2O, 0.2 mg/L CuSO4·5H2O, 0.4 mg/L CoCl2·6H2O, 1 mg/L MnCl2·2H2O). In these experiments, strains were precultured in 10 mL LB with corresponding antibiotics. Then, the cultures were washed twice in M9 media without a carbon source. Finally, the cultures were diluted to an OD600 of 0.1 to start the experiment. In all plate reader experiments, a glucose concentration of 10 mM was used. […] Plate reader experiments were carried out in 200 μL of M9 medium using an ELx808 plate reader (BioTek). Growth (OD600) was measured over time using continuous shaking and measurements were taken every three minutes. Flask experiments were performed in 250 mL Erlenmeyer flasks filled with 25 mL of M9 minimal medium containing 50 mM of glucose. […] The cultures were incubated in a rotary shaker at 200 rpm at 30° C.
The production of aromatic compounds often comes with unwanted toxicity. One way of circumventing this is the utilization of microbial hosts with high tolerance towards aromatic compounds (Li et al., 2020. Biotechnol Adv 41: 107548).
The presence of phenolic hydroxyl groups has been associated with the inhibition of microbial enzymes and the damage of the bacterial membrane (Miklasinska-Majdanik et al., 2018. Int J Environ Res Public Health 15: 2321).

[1] = Distribution of anisole and phenol between water and organic solvent after 1 h; type: physicochemical; conditions: 1 mM in water, equal volume of dodecane, ethyl acetate, isopropyl myristate or tributyrin
Protocol: A main bottleneck when producing anisole is its volatility. To overcome this problem an organic solvent can be used in biphasic fermentation to quantify volatile or insoluble products in water, allowing their recovery. To enable in situ anisole extraction, we tested four organic solvents: dodecane, ethyl acetate, isopropyl myristate, and tributyrin. […] Next, 0.9 ml of the stock solution was mixed with an equal volume of one of the selected solvents in an Eppendorf tube.
Therefore, dodecane was chosen as the solvent for anisole extraction.

[2] = Anisole capture at different dodecane ratios, 24 h flasks; type: physicochemical; conditions: 30° C., 250 rpm
Protocol: An additional experiment was performed to determine the optimal ratio of the two phases. Ratios of 0%, 5%, 15%, 30%, 50%, and 100% dodecane were tested in a total volume of 25 ml. […] Next, dodecane was added to the flasks according to the predetermined ratios. Flasks were incubated for 24 h at 30° C. and 250 rpm to simulate P. putida KT2440 growth. After incubation, samples were collected separately from each phase and concentrations were measured using HPLC. […] After 24 hours, samples containing the organic phase from 5% and 15% dodecane flasks captured on average 19.42% and 39.57% of the initial concentration of anisole, respectively. […] Flasks containing 30% dodecane, extracted approximately 75% of the anisole which was further increased to nearly 95% flasks with a 50% ratio.

[3] = Abiotic escape of anisole from M9 minimal media overnight; type: physicochemical; conditions: 2 mM anisole in M9 minimal media, flasks
phenol [4] = assay: Phenol consumption and anisole production, CVOMT1 vs POMT1 in P. putida KT2440 with 50% dodecane; type: cell-based, Pseudomonas putida; conditions: for anisole produced, maximum / phenol consumed: 50 mM glucose, 1 mM phenol, 1 mM methionine, 50% dodecane; for phenol consumed: 24 hours
Protocol: Cell growth was determined by measuring the optical density at 600 nm (OD600) using an OD600 DiluPhotometer spectrophotometer (IMPLEN) or a Synergy plate reader (BioTek Instruments). Analysis of glucose in supernatants was performed using high-performance liquid chromatography (HPLC) (Thermo Fisher Scientific) equipped with an Aminex HPX-87H column. The mobile phase was 5 mM of H2SO4 at a flow rate of 0.6 mL/min, the column temperatures were held at 60° C. and the compounds were detected using a Shodex RI-101 detector (Shodex). […] The mobile phase consisted of Milli-Q water (A), 100 mM formic acid (B) and acetonitrile (C) with a flow rate of 1 mL/min at 30° C. Chromatographic separation of analytes was attained using the following gradient program: t=0-5 min: A-55%, B-10% and C-35% from t=5-10 min ramp to A-10%, B-10% and C-80% and held until 15 min. Then from t=15-16 min, the gradient was returned to A-55%, B-10% and C-35% and maintained isocratic for a total run time of 18 min. For quantification, calibration curves were prepared using pure standards (purity) purchased from Sigma-Aldrich.
Next, an aim was set to examine the anisole production rate of POMT1 compared to CVOMT1. […] An initial sample was taken and hereafter 50% dodecane was added. Cells were then incubated overnight at 30° C. and 250 rpm. Samples were taken at time zero only from the medium and then after 24 hours from both phases and analyzed at the HPLC.

phenol [5] = assay: Phenol consumption and anisole production by P. putida KT2440 expressing CVOMT1; type: cell-based, Pseudomonas putida; conditions: 50 mM glucose, 1 mM phenol
Protocol: as §1

phenol [6] = assay: Growth-coupled methyltransferase selection in CM-Aux; type: cell-based, Pseudomonas putida
Text: This design relies on the conversion of methionine into cysteine through the intermediate homocysteine with the aid of a SAM-dependent methyltransferase. Exogenously added methionine is converted into SAM, which would subsequently be converted into S-adenosyl-l-homocysteine (SAH) by CVOMT1 (FIG. 8C). Then, SAH is converted into homocysteine and subsequently into cysteine by reverse trans-sulfuration restoring growth in the process.
Next, an aim was set to install the reverse trans-sulfuration module which will convert homocysteine to the amino acid cysteine. This is a two-step process, catalyzed by the enzymes cystathionine-β-synthase and cystathionine-γ-lyase. The C-module was created by cloning the cystathionine-β-synthase (Cys) from S. cerevisiae and the cystathionine-γ-lyase (PA) from Pseudomonas aeruginosa on a pSEVAb62 backbone. The CM-Aux strain was equipped with the C-module and growth of the strain in minimal media was assessed. In all cases, growth could only occur upon the expression of the C-module. This module converts homocysteine to […], and if active, produces cysteine, restoring growth (FIG. 8A). […]
Next, an aim was set to examine the anisole production rate of POMT1 compared to CVOMT1. […] Samples were taken at time zero only from the medium and then after 24 hours from both phases and analyzed at the HPLC.

Molecule: Oc1ccccc1 [phenol]
- concentration up to which growth rates did not deviate (P. putida KT2440; growth of P. putida KT2440): up to 2 mM
- concentration with detrimental effect on growth rate and final cell density (P. putida KT2440; growth of P. putida KT2440): ≥ 3000 µM
- phenol concentration the strain was able to withstand (P. putida KT2440; growth of P. putida KT2440): up to 5 mM

Molecule: COc1ccccc1 [anisole]
- capture of anisole by organic solvents [1]: successfully captured
- effect on growth (P. putida KT2440): did not show any detrimental effects on growth
- anisole in water phase ([2]; 0% dodecane): almost undetectable
- anisole captured in organic phase, of initial concentration ([2]; 5% dodecane): 19.42%
- anisole captured in organic phase, of initial concentration ([2]; 15% dodecane): 39.57%
- anisole extracted ([2]; 30% dodecane): approximately 75%
- anisole extracted ([2]; 50% dodecane): ~95%
- anisole disappeared from media [3]: 89%

B1: CVOMT1: chavicol O-methyltransferase (EC 2.1.1.146) from Ocimum basilicum, SEQ ID NO:1 (protein, listed as Ocimum basilicum)
chain: MALQNMDISLSTEQLLQAQAHVWNHMYAFANSMSLKCAIQLGIPDILHKHDHPMTLSQLLKAIPINKEKSQSFQRLMRALVNSNFFIEENSNNQEVCYWLTPASRLLLKGAPLTVAPLVQVVLDPTFTNPWHYMSEWFKHENHATQFEAANGCTFWEKLANKPSMGRFFDEAMSCDSRLVAHVLTKDYKHVIDGIRTLVDVGGGNGTMAKAIVEAVPTMKCTVLDLPHVVAGLESTDKLSYIGGDMFQSIPSADAILLKFIIHDWDDEEGLKILKRCKDAVGIGGKVIIIDVVVGVNHDVDEVLEDQLHFDMAMMSYFNAKERTMNEWEKLISAAGFTSYKLTPAFGVRSLIEAYP
- anisole produced, maximum (phenol [4]): 0.06 mM
- phenol consumed (phenol [4]): 0.23 mM
- anisole yield of the converted phenol (phenol [5]; 1 mM methionine added): 15.5 % mol/mol
- anisole detection (phenol [5]; no methionine): no anisole was detected
- phenol consumed (phenol [5]; no methionine, 24 hours): 0.12 mM
- doubling time (phenol [6]; CM-Aux with C- and A-module, phenol and methionine added (1 mM)): 1.8 h

B2: POMT1: evolved phenol O-methyltransferase, SEQ ID NO:1 with D264N alteration (SEQ ID NO:3) (protein)
chain: MALQNMDISLSTEQLLQAQAHVWNHMYAFANSMSLKCAIQLGIPDILHKHDHPMTLSQLLKAIPINKEKSQSFQRLMRALVNSNFFIEENSNNQEVCYWLTPASRLLLKGAPLTVAPLVQVVLDPTFTNPWHYMSEWFKHENHATQFEAANGCTFWEKLANKPSMGRFFDEAMSCDSRLVAHVLTKDYKHVIDGIRTLVDVGGGNGTMAKAIVEAVPTMKCTVLDLPHVVAGLESTDKLSYIGGDMFQSIPSADAILLKFIIHNWDDEEGLKILKRCKDAVGIGGKVIIIDVVVGVNHDVDEVLEDQLHFDMAMMSYFNAKERTMNEWEKLISAAGFTSYKLTPAFGVRSLIEAYP
- increase in anisole concentration compared to wild-type enzyme (phenol [4]): 2.33 fold
- anisole produced, maximum (phenol [4]): 0.14 mM
- phenol consumed (phenol [4]): 0.38 mM
- phenol consumption more than CVOMT1 (phenol [4]; within 24 hours): 65%
- phenol concentration at which maximum growth rate is reached (phenol [6]; CM-Aux, 1 mM methionine, different phenol concentrations): 0.2 mM
